# Data as given in patent US20140099354A1, “BIOPASSIVATING MEMBRANE STABILIZATION BY MEANS OF NITROCARBOXYLIC ACID-CONTAINING PHOSPHOLIPIDS IN PREPARATIONS AND COATINGS” (priority 2011, published 2014).
# Tests used:
# [1] = tested on: HeLa, HUVEC and L929 fibroblast; test: cells; format: cell-based; conditions: after 48 hours, for the different cell lines; read-out: EC50 concentration (MTT assay)
# Method: (§1) Physiologically occurring phospholipids can be taken up by virtually all cell lines in large quantities. It is known that phospholipids that contain non-physiologically occurring fatty acid residues can cause cell lyses or death. Three cell lines (HeLa, HUVEC and L929 fibroblast) were cultured in a suitable culture medium of 5% FCS at 37° C. and 5% CO2 concentrations to a subconfluent concentration of 1.5×10^5 cells.
# SOPC, DOPC, POPC, ONOPC, PNLPC, and the free fatty acids of OA, LA, NOOA, and NOLA were dissolved in 0.5% DMSO. […] Cell cultures were incubated for 24 h and 48 h. Thereafter, the culture medium was removed and the cells washed twice. Following this, cells suspensions were given in four vials to perform the following analysis:
# For the determination of viability, phenol red was added to the suspended cells. After 4 h, the medium was renewed and 10 μl of the MTT solution was added. The cells were cultured for 4 hours, and then a 10% SDS solution was pipetted. After 24 h, absorption of formazan crystals was measured at 500 nm using a power wave X (bio-tek instruments, Inc., USA). For the quantitative comparison of toxicity, the EC50 was determined.
# [2] = tested on: HeLa, HUVEC and L929 fibroblast; test: Volumetric measurement of cells (Coulter counter); format: cell-based; conditions: time-dependent increase after incubation
# Method: as §1
# SOPC, DOPC, POPC, ONOPC, PNLPC, and the free fatty acids of OA, LA, NOOA, and NOLA were dissolved in 0.5% DMSO. Experiments were performed also with nitro-carboxylic acid-containing phospholipids according to examples N15-N20, G, O3, O5, P2, P5, P8, P9, P11 and Q. PL prepared as aqueous suspensions were added the culture flasks in order to achieve PL concentrations in the culture medium from 10 μmol to 1 mmol. Cell cultures were incubated for 24 h and 48 h. Thereafter, the culture medium was removed and the cells washed twice. Following this, cells suspensions were given in four vials to perform the following analysis:
# Volumetric measurement of cells was done in a Histopenz (Sigma) solution with an effective NaCl concentration of 0.9% (approximately 290 mOsm) heated to 37° C. in which the cells were suspended; thereafter the solution was sonified for 2 minutes. Measurements were done using a Coulter counter Z2.
# [3] = Tissue response to coated silicone implants in vivo after bleomycin; parameters: species or system Wistar rats; conditions: silicone cushions, subcutaneous, 7 to 90 days
# Method: Induction of fibrotic tissue production by connective tissue activation as a consequence of implantation of foreign material was examined in an in-vivo animal model. As implant materials, sterile silicone cushions having a diameter of 1 cm were used.
# In male Wistar rats (190-240 g) that were fed and housed under identical conditions for one week, general anaesthesia was performed by intramuscular injection of 0.008 mL/100 g ketamine and 0.004 mL/100 g xylocaln chloride 2%. Then the back of the animals was shaved, sterilized and infiltrated with xylocalne chloride. A paravertebral incision was made on both sides with a length of 1.5 cm followed by preparation of the subcutaneous tissue, so that on both sides approx. 2×2 cm cavities were preformed. Hemostasis was achieved by cauterization, if necessary. Then balls of cotton saturated with Bleomycin (cell-pharm GmbH, Hannover, Germany: 1% in 0.9% NaCl solution) were inserted into the cavities for 3 minutes and then removed. Without rinsing the cavities, the implants coated with a nitrated phospholipid were inserted into the cavity on the left side and the implants coated with natural phospholipid into the cavity on the right side. Thereafter, a layer by layer wound closure was performed and a sterile adhesive bandage was applied.
# The animals were kept according to standard conditions for 7, 14, 30, 60 and 90 days. At any study time endpoint, two animals were euthanized. After death the well visible and palpable implants were removed using en-block resection technique. The resected specimens were fixed and embedded in paraffin. Then they were cut in half and the liquid silicone was removed. The specimens were embedded again and cut into thin slices which were stained with H & E and Sirius red, and evaluated by light microscopy. Evaluation was done according to the following criteria:
# A1: none; A2: occasional monocytic cells or lymphocytes; A3: moderate numbers or groups of monocytic cells or lymphocytes; A4: dense infiltration of monocytes, eosinophils, or giant cells.
# B1: none; B2: collagen-rich layer around the implant; B3: thick (>1 mm) and dense collagen-rich tissue formation around the implant.
# In every 10th serial section 10 fields of view uniformly distributed over the circumference of the implant were evaluated and the herein predominant expression was assigned to an event table. In total, 200 fields of view were analyzed per implant
# [4] = Transisomerization of unsaturated fatty acids in coatings on balloon catheters (FTIR); format: physicochemical
# Source text: The natural phospholipids POPC and SLPE, as well as the analogous nitrated phospholipids as shown in example C(PNOPC) and […]), as well as the phospholipids according to examples […], and S as a mono substance and as a combination of the native phospholipids and the corresponding nitro-carboxylic acid (s)-containing phospholipids mixed in a ratio of 1:1 were used for this investigation. Balloon catheters were coated by means of the Langmuir-Schaefer procedure where the balloon segment was aligned longitudinally and coaxial to the solution surface, dipping into the liquid for approx. 1 mm over the entire length. Then the catheter was slowly rotated around its axis 5 times. […] The solution was cooled and given to the coating solution then. In case of incomplete dissolution of the phospholipids or if they separated when cooled, DMSO was added at a concentration of up to 20 vol.-%, preferably up to 10 vol.-%. After coating, the catheters were vacuum dried for 8 hours in order to remove residual solvent. The abrasion or loss of coating layers was determined by weighing the catheter before and after coating as well as after the mechanical stability test in the tubing system as described above using a high precision balance. In order to examine the long-term stability of the coating, catheters coated with phospholipids were sealed with polyethylene glycol 1000 (Roth, Germany). For that purpose PEG 1000 was melted and mixed with a 10% ethanol solution at 50° C. A portion of the phospholipid-coated balloon catheter was coated by means of dip-coating in this PEG solution at 50° C., and dried thereafter for 8 hours. Stability of cis-conformity of unsaturated fatty acids of the phospholipids investigated was determined after heat treatment at 60° C. for three hours in a heating cabinet. After 24 hours and after 2 months the phospholipids coated on the balloon surface were detached and analyzed. Detachment was carried out in 50 ml of a chloroform:methanol mixture (3:1, v: v). A 10 μl aliquot was used for a FTIR spectroscopy. For this purpose the samples were dropped on a ZnSe ATR crystal and then the solvent was evaporated. Degree of transisomerization was determined using the integral of intensity of proton resonance in comparison to that measured from a cis configuration of the reference substances. Measurements were performed 24 hours after coating, heat treatment and after 2 months of storage at 25° C. under sterile room air conditions.
# [5] = tested on: sciatic nerve; test: Viability of cryopreserved nerve grafts (Annexin-V staining, FACS); format: cell-based, rats; conditions: 100 mmolar solution 1 hour, −30° C. 72 hours
# [6] = Abrasion stability and traction work load of coated balloon catheters; format: physicochemical
# Method: Balloon catheters were coated by means of the Langmuir-Schaefer procedure where the balloon segment was aligned longitudinally and coaxial to the solution surface, dipping into the liquid for approx. 1 mm over the entire length. Then the catheter was slowly rotated around its axis 5 times. Phospholipids were dissolved at a concentration of 3 mmol in an ion-free aqueous solution at 50° C. The solution was cooled and given to the coating solution then. In case of incomplete dissolution of the phospholipids or if they separated when cooled, DMSO was added at a concentration of up to 20 vol.-%, preferably up to 10 vol.-%. After coating, the catheters were vacuum dried for 8 hours in order to remove residual solvent.
# The tubing was filled with a 10% human albumin solution at a temperature of 35° C. The cable system, which had previously been brought through the tubing was connected to the catheter tip and tracked outside the tubing by reversing pulleys, which allowed exactly vertically traction of the cable that was connected to a motorized winch. The winch was mounted on a digital precision balance. The catheters mounted in this manner were pulled through the tubing system and the weight changes measured by the balance, which represented the traction work load achieved for the passage of the catheter, was recorded continuously. These readings were integrated over time. The resultant values allow estimation of the total shear force that occurred during the passage of the catheter through the tubing system.
# [7] = tested on: TRPV1, 2 and 4, TRPA1; test: Inducible ion current of TRP receptors in Xenopus oocytes (voltage clamp); format: cell-based, rat; conditions: 50 mmol/l, 10 and 60 minutes
# Method: An established in-vitro model of Xenopus oocytes (Dascal N, 1987 The use of Xenopus oocytes. CRC critical reviews in biochemistry 22, 317-387) was used to study the influence of incubation with PL on ion channels regulated by membrane receptors. Defolliculized oocytes were transfected with cRNA (rat) of TRPV1, 2 and 4, as well as of TRPA1, stored in tissue culture plates and incubated in culture medium (ND 96) at 15° C. under constant motion in the incubator for 7 to 10 days.
# Induced leakage currents through activation of the TRP receptors was determined by means of double electrode voltage-clamp technique (Ahern G P, Brooks I M, Miyares R L &Wang X B, 2005, Extracellular cations sensitize and gate capsaicin receptor TRPV1 modulating pain signalling. J Neurosci 25, 5109-5116). Ooocytes were probed with borosilicate glass capillaries (Clark) and connected to a feedback amplifier (Gene clamp Amplifier, Axon instruments). The membrane potential of oocytes was clamped to −60 or −90 mV. The presence of a directive […] current was compared to non-transfected controls. The investigations were performed in a miniature organ bath in calcium-free buffered (Hepes, pH 7.3) NaCl solution. The TRPV1 receptor excitation was initiated by rapidly changing of the bath solution against a capsaicin solution (10 μmol). Results of non-pretreated oocytes were used for normative comparison of subsequent measurements of incubatesd cells. Investigations with incubated cells were carried out in the same way for oocytes transfected with the TRPV2, and TRPV4 and TRPA1 receptors, wherein the receptor agonists cannabidiol (10 μmol) and 4α-PDD (4α-phorbol 12,13-didecanoate, 50 μmol) and innamaldehyde (50 μmol) were used instead of capsaicin.
# [8] = tested on: ovarian tissue strips; test: Cryopreservation of ovarian tissue strips: intact follicles; conditions: liquid nitrogen 14 days, cultured 14 days
Compound,EC50 [1] [µM],cell volume (increase in size to) [2] [%],biocompatibility of coated implants compared to natural PLs [3],proportion of living cells relative to non-frozen control [5] [%],mechanical removal of coating substance and workload to pull the catheter through PTFE tubing [6],inducible membrane channel activity of TRP channels [7],further results
"CCCCC/C=C\C/C=C\CCCCCCCC(=O)O [linoleic acid, Linoleic acid]",240 to 260,170,–,–,–,–,–
"1,2-di-(9-nitrolinoleoyl)-sn-3-glycerophosphocholine, 1,2-di-(10-nitrolinoleoyl)-sn-3-glycerophosphocholine, 1-(9-nitrolinoleoyl)-2-(10-nitrolinoleoyl)-sn-3-glycerophosphocholine and 1-(10-nitrolinoleoyl)-2-(9-nitrolinoleoyl)-sn-3-glycerophosphocholine [Example N8]",–,–,improved biocompatibility of implants several-fold,–,–,–,–
"CCCCCCCC/C=C(\CCCCCCCC(=O)O)[N+](=O)[O-] [nitro oleic acid, E-9-nitrooleic acid]",10 to 50,140,–,–,–,–,–
"CCCCC/C=C\C/C=C(\CCCCCCCC(=O)O[C@H](COC(=O)CCCCCCCCCCCCCCCCC)COP(=O)(O)OCCN)[N+](=O)[O-] [Example R, 1-Stearoyl-2-(E-9-nitrolinoleoyl)-sn-3-glycerophosphatidylethanolamine]",–,–,improved biocompatibility of implants several-fold,75,–,–,"proportion of trans-fatty acids ([4]; after heat treatment (60° C., three hours)): 28%; degree of transisomerization ([4]; coatings after 2 months): 32%; degree of transisomerization ([4]; top coating with PEG, after 2 month): 33%; proportion of living cells relative to non-frozen control ([5]; listed as SNLPE): 80%"
"CCCCCCCC/C=C(\CCCCCCCC(=O)OC[C@H](COP(=O)(O)OCCN)OC(=O)CCCCCCC/C(=C\CCCCCCCC)[N+](=O)[O-])[N+](=O)[O-] [Example D, 1,2-di-(9-nitrooleoyl)-sn-3-glycero-phosphatidylethanolamine]",–,–,improved biocompatibility of implants several-fold,89,Very similar results,significant decrease of inducible membrane channel activity,–
"CCCCC/C=C\C/C=C(\CCCCCCCC(=O)O)[N+](=O)[O-] [nitro-linoleic acid, E-9-nitrolinoleic acid]",50 to 100,120,–,–,–,–,–
1-stearoyl-2-(10-nitrolinoleoyl)-sn-3-glycerophosphocholine and 1-stearoyl-2-(9-nitrolinoleoyl)-sn-3-glycerophosphocholine [Example P2],–,–,improved biocompatibility of implants several-fold,82,Very similar results,–,rate of intact follicles relative to the control group [8]: 85%
"CC/C=C(\C/C=C\C/C=C\CCCCCCCC(=O)O[C@H](COC(=O)CCCCCCC/C=C\C/C=C\CCCCC)COP(=O)([O-])OCC[N+](C)(C)C)[N+](=O)[O-] [Example P12, 1-linoleoyl-2-(E-15-nitro-α-linolenoyl)-sn-3-glycerophosphocholine]",–,–,improved biocompatibility of implants several-fold,–,–,–,rate of intact follicles relative to the control group [8]: 91%
"CCCCCCCC/C=C(\CCCCCCCC(=O)O[C@H](COC(=O)CCCCCCCCCCCCCCC)COP(=O)([O-])OCC[N+](C)(C)C)[N+](=O)[O-] [Example P8, 1-palmitoyl-2-(E-9-nitrooleoyl)-sn-3-glycerophosphocholine]",–,–,–,–,–,significant decrease of inducible membrane channel activity,rate of intact follicles relative to the control group [8]: 96%
"CCCCCCCC/C=C(\CCCCCCCC(=O)OC[C@H](COP(=O)(O)O)OC(=O)CCCCCCC/C(=C\CCCCCCCC)[N+](=O)[O-])[N+](=O)[O-] [Example G, 1,2-di-(9-nitrooleoyl)-sn-3-glycerophosphate]",–,–,improved biocompatibility of implants several-fold,–,Very similar results,–,–
"CCCCCCCCC=C(CCCCCCCC(=O)OC[C@H](COP(=O)(O)OC[C@H](N)C(=O)O)OC(=O)CCCCCCCC(=CCCCCCCCC)[N+](=O)[O-])[N+](=O)[O-] [Example E, 1,2-di-(9-nitrooleoyl)-sn-3-glycerophosphatidylserine]",–,–,–,–,Very similar results,significant decrease of inducible membrane channel activity,–
"CCCCCCCC/C=C\CCCCCCCC(=O)O [oleic acid, Oleic acid]",180 to 260,200,–,–,–,–,–
"CCCCCCCC/C=C(\CCCCCCCC(=O)OC[C@H](COP(=O)([O-])OCC[N+](C)(C)C)OC(=O)CCCCCCC/C(=C\CCCCCCCC)[N+](=O)[O-])[N+](=O)[O-] [Example B, 1,2-di-(9-nitrooleoyl)-sn-3-glycerophosphocholine]",–,–,improved biocompatibility of implants several-fold,83,Very similar results,significant decrease of inducible membrane channel activity,–
